Inhibition in vivo, inhibition and ED50 data for one compound are collected here from ChEMBL document CHEMBL1130598, “Pyrroles and other heterocycles as inhibitors of p38 kinase” (Bioorg Med Chem Lett, 1998).

Assay [1] deals with Rattus norvegicus. The assay can be described thus: Inhibition of secondary paw swelling in rat adjuvant arthritis model at 80 mg/kg b.i.d. The class given is functional. To be noted: intraduodenal.
For assay [2], the target named is Mitogen-activated protein kinase 8 (Homo sapiens, UniProt P45983). Description: Inhibition of c-Jun N-terminal kinase 1-alpha 1 at 5 uM.
The species named for assay [3] is Rattus norvegicus. Description: Inhibition of secondary paw swelling in rat adjuvant arthritis model. The class given is functional. The note with it: Rattus norvegicus; read-out: ID50 (the source's name).

Chain of Mitogen-activated protein kinase 8 (P45983 whole entry): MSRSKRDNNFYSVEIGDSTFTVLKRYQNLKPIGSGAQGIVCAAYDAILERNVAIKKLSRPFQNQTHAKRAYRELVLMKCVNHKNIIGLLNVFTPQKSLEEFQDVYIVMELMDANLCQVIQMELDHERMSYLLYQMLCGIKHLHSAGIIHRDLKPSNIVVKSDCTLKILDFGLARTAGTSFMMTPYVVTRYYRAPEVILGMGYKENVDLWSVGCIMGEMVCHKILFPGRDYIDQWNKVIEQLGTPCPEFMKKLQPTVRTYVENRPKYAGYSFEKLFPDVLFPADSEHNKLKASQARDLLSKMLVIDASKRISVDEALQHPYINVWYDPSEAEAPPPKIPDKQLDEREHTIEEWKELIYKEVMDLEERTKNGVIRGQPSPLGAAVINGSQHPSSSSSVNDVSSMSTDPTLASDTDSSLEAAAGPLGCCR

`C[S+]([O-])c1ccc(-c2nc(-c3ccc(F)cc3)c(-c3ccncc3)[nH]2)cc1` (stereo not drawn) [SB-203580]: the inhibition in vivo (usually the drop in the measured response relative to a control, in per cent) at 80 mg/kg in the assay with Rattus norvegicus [1] is 74%. Besides, in assay [2], the inhibition (commonly the change of the read-out against control, counted positive when it falls) came to 50%. Further, in the assay filed under Rattus norvegicus [3], the ED50 worked out at 80 mg/kg/day.
